Assay results published in US20140357512A1, “HISTONE DEACETYLASE (HDAC) BIOMARKERS IN MULTIPLE MYELOMA” (priority 2013, published 2014).

Tested on: human myeloma cell line MM.1S
Assay: SILAC acetylated-lysine peptide profiling, HDAC inhibitor vs DMSO (light/heavy ratio)
Format: cell-based
Excerpt: An embodiment of the invention comprises utilizing the SILAC method in order to quantitate changes in protein expression between two or more populations of cells. The SILAC method is a technique based on mass spectrometry that detects differences in protein abundance among samples using non-radioactive isotopic labeling. The SILAC method is known in the art, and described in detail in Ong et al., “Stable Isotope Labeling by Amino Acids in Cell Culture, SILAC, as a Simple and Accurate Approach to Expression Proteomics”, Molecular & Cellular Proteomics, vol. 1, pp. 376-386 (2002), which is incorporated herein by reference in its entirety.
Briefly, the SILAC method involves growing two populations of cells in cell culture. The first population of cells is grown in growth media containing normal amino acids (“normal media”). The second population of cells is grown in media lacking a standard essential amino acid (such as lysine), but is then supplemented with a non-radioactive, isotopically labeled form of that essential amino acid (such as lysine labeled with ^13C atoms, rather than normal ^12C atoms), which is called “heavy media”. When the two populations of cells are each growing in the medium, they incorporate the amino acids into all of their proteins. The growth of cells maintained in the heavy media is no different from that in normal media. All peptides containing the heavy amino acids are heavier than their normal counterparts. The cells from each of the two populations of cells are lysed. The lysates from each of the two cell populations are then combined. The combined cell lysates are then analyzed by mass spectrometry. Pairs of chemically identical peptides of different stable isotope composition can be differentiated in a mass spectrometer due to their difference in mass. The ratio of peak intensities in the mass spectrum for such peptide pairs reflects the abundance ratio for the two proteins.
This example describes SILAC studies that were performed to compare the effects of three different HDAC inhibitors (Compound A, Compound B, and tubastatin A) to a control on a human multiple myeloma cell line. The HDAC inhibitors were also compared amongst themselves to determine differences in their effects.
A human myeloma cell line MM.1S was grown using either ^12C (light) or ^13C (heavy) lysine containing culture medium. The “heavy” cells were treated with DMSO as the control, and the “light” cells were treated with a single HDAC inhibitor at 37° C. for 6 hours. The heavy and light cells were lysed, and the lysates were mixed in 1:1 ratio and digested with the protease trypsin. The acetylated lysine containing peptides (due to the action of the HDAC inhibitor) in the digested peptide pool were captured by a non-specific anti-acetylated lysine antibody cocktail (the antibodies identify both light and heavy acetylated peptides), and subjected to mass spectrometry analysis in order to identify thousands of individual peptides.
Thousands of peptides were identified in pairs (^12C and ^13C) due to their known mass differences. The amino acid sequence and quantitative ratio (Light/Heavy) of a given peptide in two differentially treated cell lysates were then determined and annotated with their possible protein (gene) sources.
As stated above, three HDAC inhibitors (Compound A, Compound B, and Tubastatin A) were used. Thus, the SILAC method was performed three times, with a different HDAC inhibitor compared to a control each time. Accordingly, there are three pairs of quantitative data in the table below, i.e., Compound A:DMSO, Compound B:DMSO, and Tubastatin A:DMSO. A cut-off of 1.30 fold of change (increase or decrease) was then used to determine “changed” or “+” in the table, and any peptides with a fold of change less than 1.3 fold were determined to be “unchanged” or “0” in the table. Those peptides that were not identified were marked as “NA” in the table. […]

Q: Which “L/H ratio of acetylated peptide […](ac)SHR (SEQ ID NO: 56)” value (IGLV2-14, IGLC2 [208], log 2 scale, drug vs DMSO) does the source give for `O=C(NO)c1cnc(NC2(c3cccc(F)c3)CCCCC2)nc1` [Compound B, 2-((1-(3-fluorophenyl)cyclohexyl)amino)-N-hydroxypyrimidine-5-carboxamide] here?
A: 0.00

Q: What about the “light to heavy ratio (L/H ratio) of acetylated peptide, log 2 scale” value (IGQGYLIK(ac)DGK (SEQ ID NO: 249), 60S ribosomal protein L3 [294], SNORD43, RPL3) of the same molecule?
A: 0.00

Q: And the “L/H ratio of acetylated peptide” value (IIWHK(ac)FK (SEQ ID NO: 419), Isoform 1 of 39S ribosomal protein L47 mitochondrial [180], MRPL47)?
A: −0.73 log 2

Q: What about the “light to heavy ratio (L/H ratio) of acetylated peptide, log 2 scale” value (IMK(ac)DLDQCR (SEQ ID NO: 217), Protein S100-A10 [57], S100A10) of the same molecule?
A: 0.00

Q: And the “L/H ratio of acetylated peptide” value (IMK(ac)SEVLR (SEQ ID NO: 434), 26S protease regulatory subunit 6A [56], PSMC3)?
A: 0.41 log 2

Q: What about the “L/H ratio of acetylated peptide” value (IMQK(ac)YGFR (SEQ ID NO: 440), Splicing factor 45 [245], RBM17) of the same molecule?
A: −0.50 log 2

Q: What about the “light to heavy ratio (L/H ratio) of acetylated peptide, log 2 scale” value (IQDK(ac)EGIPPDQQR (SEQ ID NO: 212), Ubiquitin-40S ribosomal protein S27a [33], RPS27A) of the same molecule?
A: 0.00

Q: What about the “L/H ratio of acetylated peptide” value (IQFK(ac)QDDGTGPEK (SEQ ID NO: 412), Isoform 1 of Far upstream element-binding protein 2 [359], KHSRP) of the same molecule?
A: 0.61 log 2

Q: What about the “light to heavy ratio (L/H ratio) of acetylated peptide, log 2 scale” value (ISK(ac)EVLAGR (SEQ ID NO: 167), Isoform Short of Heterogeneous nuclear ribonucleoprotein U [417], HNRNPU) of the same molecule?
A: 0.00

Q: What about the “L/H ratio of acetylated peptide” value (IYHPNVDK(ac)LGR (SEQ ID NO: 462), Ubiquitin-conjugating enzyme E2 N [82], UBE2N) of the same molecule?
A: −0.70 log 2

Q: And the “light to heavy ratio (L/H ratio), log 2 scale, acetylated peptide LMK(ac)ICMNEDPAK (SEQ ID NO: 800)” value (Integrin-linked protein kinase [426], gene ILK, drug:DMSO)?
A: 0.00

Q: And the “light to heavy ratio (L/H ratio) of acetylated peptide HAHGDQYK(ac)ATDFVADR (SEQ ID NO: 574)” value (Isocitrate dehydrogenase [NADP] mitochondrial [180], gene IDH2, inhibitor:DMSO)?
A: 0.00 log 2

Q: What about the “light to heavy ratio (L/H ratio) of acetylated peptide AGTFK(ac)MVFTPK (SEQ ID NO: 606)” value (Isocitrate dehydrogenase [NADP] mitochondrial [193], gene IDH2, inhibitor:DMSO) of the same molecule?
A: 0.00 log 2

Q: What about the “light to heavy ratio (L/H ratio) of acetylated peptide TDFDKNK(ac)IWYEHR (SEQ ID NO: 555)” value (Isocitrate dehydrogenase [NADP] mitochondrial [282], gene IDH2, inhibitor:DMSO) of the same molecule?
A: 0.00 log 2

Q: What about the “light to heavy ratio (L/H ratio) of acetylated peptide AVLIDK(ac)DQSPK (SEQ ID NO: 577)” value (Isoform 1 of 3-hydroxyisobutyryl-CoA hydrolase mitochondrial [353], gene HIBCH, inhibitor:DMSO) of the same molecule?
A: 0.00 log 2

Q: And the “light to heavy ratio (L/H ratio) of acetylated peptide […](ac)VVQER (SEQ ID NO: 318)” value (Isoform 1 of 39S ribosomal protein L47 mitochondrial [144], MRPL47, drug:DMSO)?
A: 0.00 log 2

Q: And the “light to heavy ratio (L/H ratio) of acetylated peptide ATVPK(ac)TEIR (SEQ ID NO: 272)” value (Isoform 1 of 40S ribosomal protein S24 [37], RPS24, drug:DMSO)?
A: 0.00 log 2

Q: What about the “light to heavy ratio (L/H ratio) of acetylated peptide ISK(ac)EEAMR (SEQ ID NO: 299)” value (Isoform 1 of 60S ribosomal protein L11 [159], RPL11, drug:DMSO) of the same molecule?
A: 0.00 log 2

Q: And the “light to heavy ratio (L/H ratio) of acetylated peptide RPEILK(ac)QEIK (SEQ ID NO: 359)” value (Isoform 1 of AP-2 complex subunit beta [318], AP2B1, drug:DMSO)?
A: 0.57 log 2

Q: What about the “light to heavy ratio (L/H ratio) of acetylated peptide […](ac)ANVAK (SEQ ID NO: 364)” value (Isoform 1 of ATP synthase subunit d mitochondrial [58], ATP5H, drug:DMSO) of the same molecule?
A: 0.48 log 2

Q: What about the “light to heavy ratio (L/H ratio) of acetylated peptide VPVPEDK(ac)[…] (SEQ ID NO: 290)” value (Isoform 1 of ATP synthase subunit d mitochondrial [85], ATP5H, drug:DMSO) of the same molecule?
A: 0.00 log 2

Q: What about the “light to heavy ratio (L/H ratio) of acetylated peptide GHCPPAPAK(ac)PMHPENK(ac)LTNHGK (SEQ ID NO: 366)” value (Isoform 1 of B-cell CLL/lymphoma 9-like protein [36:43], BCL9L, drug:DMSO) of the same molecule?
A: 0.63 log 2

Q: And the “light to heavy ratio (L/H ratio) of acetylated peptide VWNYK(ac)LR (SEQ ID NO: 593)” value (Isoform 1 of Coatomer subunit alpha [81], gene COPA, inhibitor:DMSO)?
A: 0.00 log 2

Q: What about the “light to heavy ratio (L/H ratio) of acetylated peptide SLLK(ac)PFCAALLK (SEQ ID NO: 329)” value (Isoform 1 of Cytoskeleton-associated protein 5 [438], CKAP5, drug:DMSO) of the same molecule?
A: 0.48 log 2

Q: What about the “light to heavy ratio (L/H ratio) of acetylated peptide ELEK(ac)VCNPIITK (SEQ ID NO: 612)” value (Isoform 1 of Heat shock cognate 71 kDa protein [601], gene HSPA8, inhibitor:DMSO) of the same molecule?
A: 0.00 log 2

Q: And the “light to heavy ratio (L/H ratio) of acetylated peptide DVSYQGGK(ac)SIK (SEQ ID NO: 571)” value (Isoform 1 of Histone-lysine N-methyltransferase MLL3 [758], gene MLL3, inhibitor:DMSO)?
A: 0.00 log 2

Q: And the “light to heavy ratio (L/H ratio) of acetylated peptide TLVLSDK(ac)HSPQK (SEQ ID NO: 523)” value (Isoform 1 of Histone-lysine N-methyltransferase MLL3 [2809], gene MLL3, inhibitor:DMSO)?
A: 0.00 log 2

Q: What about the “light to heavy ratio (L/H ratio) of acetylated peptide LVAENK(ac)FGK (SEQ ID NO: 296)” value (Isoform 1 of Hydroxyacyl-coenzyme A dehydrogenase mitochondrial [301], HADH, drug:DMSO) of the same molecule?
A: 0.00 log 2

Q: What about the “light to heavy ratio (L/H ratio) of acetylated peptide K(ac)[…] (SEQ ID NO: 316)” value (Isoform 1 of L-lactate dehydrogenase A chain [318], LDHA, drug:DMSO) of the same molecule?
A: 0.00 log 2

Q: And the “light to heavy ratio (L/H ratio) of acetylated peptide INK(ac)ALDK (SEQ ID NO: 344)” value (Isoform 1 of Myosin-9 [435], MYH9, drug:DMSO)?
A: 0.43 log 2

Q: What about the “light to heavy ratio (L/H ratio) of acetylated peptide FYK(ac)[…] (SEQ ID NO: 596)” value (Isoform 1 of N-alpha-acetyltransferase 50 NatE catalytic subunit [37], gene NAA50, inhibitor:DMSO) of the same molecule?
A: 0.00 log 2

Q: And the “light to heavy ratio (L/H ratio), log 2 scale, acetylated peptide […](ac)SK (SEQ ID NO: 767)” value (Isoform 1 of Peripherin [288], gene PRPH, drug:DMSO)?
A: 0.00
